We go through four molecules from ChEMBL document CHEMBL5385920, “Discovery of P450-Modified Sesquiterpenoids Levinoids A-D through Global Genome Mining” (J Nat Prod, 2024).

Calls of active or inactive are those of the source. No cut-off for these calls is given here.

Assay [1] concerns HT-22. Description: Neuroprotective activity against glutamate-induced cytotoxicity in HT-22 cells assessed as increase in cell viability at 10 ug/ml measured after 24 hrs in presence of glutamate by CCK8 assay. It counts as functional, cell-based. To be noted: Mus musculus, dose 10.0 µg/ml. (In general: Tetrazolium dyes change colour on reduction, which living cells bring about.)

Assay [2] deals with HT-22. The assay can be described thus: Neuroprotective activity against glutamate-induced cytotoxicity in HT-22 cells assessed as increase in cell viability measured after 24 hrs in presence of glutamate by CCK8 assay. It counts as functional, cell-based. To be noted: Mus musculus, HT-22, 24 h.
In assay [3] the test system is HT-22. The assay can be described thus: Neuroprotective activity against glutamate-induced cytotoxicity in HT-22 cells assessed as increase in cell viability at 10 ug/ml measured after 24 hrs in presence of glutamate by CCK8 assay relative to control. In kind it is functional, Mus musculus. Conditions: dose 10 µg/ml.

What is called EC50 is the concentration that produces a half-maximal response.

Consider `CC1=CC[C@@H](C(C)C)[C@H]2C=C(C(=O)O)[C@@H](O)C[C@@H]12`, for which, in the assay with HT-22 [1], the outcome was inactive.
Still for that read-out and setting: the same measure for `CC1=CC[C@@H](C(C)C)[C@H]2C=C(C(=O)O)CC[C@@H]12`: “inactive”.
Regarding `CC1=CC[C@@H](C(C)C)[C@@]2(O)C=C(C(=O)O)CC[C@@H]12`, the outcome in the assay on HT-22 [1] was inactive.
Regarding `CC1=CC[C@@H](C(C)C)[C@H]2C=C(C(=O)O)CC[C@@]12O`, the concentration giving a half-maximal response (EC50) in the assay on HT-22 [2] was roughly 21 µM. The Activity with HT-22 [3] is on record as 82%.
